Consider one substance from US20140322344A1, “VACCINE PREPARATION FOR CANCER TREATMENT” (priority 2011, published 2014).

Assay [1] relates to CD8-positive killer T cells and CD4-positive helper T cells specific to MAGE-A4 epitopes. Briefly: Induction of antigen-specific T cells in immunized mice, spleen cells, intracellular cytokine staining (MAGE-A4 peptides). It counts as in vivo, BALB/c mice. The settings on record: s.c. twice at one week intervals, FIG. 1. On the procedure:
[…] For administration, they were subcutaneously injected into the backs of the mice twice at one week intervals. For one dose of the hydrophobized polysaccharide-synthetic long peptide complex, a dosage corresponding to 0.1 mg of the synthetic long peptide complex was administered. Either the CpG oligo DNA or the poly-IC RNA as the immunopotentiating agent was subcutaneously injected at a dose of 0.05 mg proximal to the administration site of the hydrophobized polysaccharide-synthetic long peptide.
One week after the final administration, spleen cells were isolated from the treated mice in the following manner. The spleen was isolated from the mouse and washed in RPMI1640 medium to remove blood. The spleen was ground using a slide glass, and then the free cells were collected in RPMI1640 medium. After centrifugation (400×g, 5 min., 4° C.), the supernatant was removed, to which 2 mL of ACK solution was added to treat the cells for 1 minute. 18 mL of RPMI1640 medium was added and centrifugation (400×g, 5 min., 4° C.) was carried out. […] After the number of the cells was counted, the cells were suspended in RPMI1640 medium containing 10% fetal bovine serum (FBS) so that the cell concentration was 1×10^7 cells/mL. […]
The cells were analyzed with a flow cytometer (FACS Canto II, BD Biosciences Company) using the associated analysis software (FACSDiva).

The subject of assay [2] is mouse colon cancer cells CT 26 into which the MAGE-A4 gene was stably introduced. Briefly: Tumor rejection test, CT26/MAGE-A4. It counts as in vivo, BALB/c mice. To be noted: co-administered s.c. with CpG oligo DNA 7 days before tumor implantation; p<0.0001; FIG. 7. How it is done: A mouse colon cancer cell CT26 cell line into which the MAGE-A4 gene was stably introduced or a mouse fibrosarcoma CMS5a cell line which expresses mERK2 was subcutaneously implanted in the following manner. The CT26 cell line or CMS5a cell line, which had been cultured in a T75 flask (Nunc Co., Ltd.), was washed with PBS; then the cells were removed with PBS containing 0.5% trypsin and collected in RPMI1640 medium containing 10% FBS. After centrifugation (400×g, 5 min., 4° C.), the supernatant was removed, washed twice with RPMI1640 medium, then re-suspended in RPMI1640 medium at a concentration of 1×10^6 cells/100 μL, and subcutaneously implanted into BALB/c mice in an amount of 100 μL/individual. Subsequently, their tumor areas were measured over time. A comparison of the data in the tumor rejection test was performed according to Student's t-test using MS Excel (Microsoft).

For “MAGE-A4 p264:40: synthetic long peptide, 40 aa, from MAGE-A4, SEQ ID NO: 1: GSNPARYEFLWGPRALAETSYVKVLEHVVRVNARVRIAYP (Human; MAGE-A4 p26440)”, the “induction of killer T cells and helper T cells specific to the peptide” value in assay [1] (administered alone, no immunopotentiating agent) is “are not induced”. Further, the “induction of antigen-specific killer T cells and helper T cells” value in assay [1] (co-administered with CpG oligo DNA) is recorded as “the intended T cells are not induced”. For the same substance, the “tumor growth inhibition as compared to PBS administration group” value in assay [2] is on record as “significant inhibition”.
